{"source": "patent US20120231482A1", "about": "“METHOD, KIT OR DIAGNOSTIC FOR THE DETECTION OF REAGENTS WHICH INDUCE ALTERED CONTRACTILITY” (THE JOHNS HOPKINS UNIVERSITY, priority 2009, published 2012)", "key": {"intact trabeculae": {"system": "intact trabeculae", "assay": "Steady-state force-[Ca2+]i relationship in intact trabeculae (tetanized with ryanodine)", "type": "cell-based, rat", "parameters": "[Ca2+]i required for 50% of activation (Ca50): unit not given here"}, "actin": {"target": "T1, actin (Rattus norvegicus, UniProt P68035)", "T1 construct": "Rat myofibrillar preparations, as described in [7], were obtained from frozen ventricles (Pel Freez Biologicals); tissue Pel Freez Biologicals; host or cells: myofibrils from frozen rat ventricles", "assay": "Gel shift assay, reducing/non-reducing western blot of cardiac myofibrils", "type": "biochemical", "settings": "for actin higher molecular weight forms: non-reducing, lost with 5 mM DTT", "experimental": "FIG. 4. Validation and characterizations of HNO modifications. 1 μg of rat cardiac myofibrils treated with HNO donors or control compounds were separated under reducing or nonreducing conditions and western blots probed for candidate proteins tropomyosin, actin, myosin heavy chain, myosin light chain 1 (n=4). […] Silver stained gel analysis indicated a protein band with […] gel mobility that was lost with DTT.\nFIG. 5. Evaluation of the interaction between actin and tropomyosin with NCA treatment. Purified rabbit skeletal tropomyosin (0.03 μg) and isolated rat cardiac myofibrils (1 μg) were treated with NCA or AS and evaluated by 1D non-reducing western blot probing for tropomyosin (A) and actin (B) (n=3). […] (C) Fluorescent DIGE analysis of samples from A and B independent labeled indicates NCA specific band (green) above purified TM (blue) and below AS treated myofibrils (red) (n=3). (D) MS analysis of the same gel region identified both tropomyosin and actin in non-reduced lane but not with DTT treatment (n=2).\nGel shift assay. 10 μg of rat myofibrils/treatment were diluted to 0.5 μg/μl in HEN including 0.1% (w/v) SDS and exposed to a treatment for 20 min at 37° C. Samples were diluted to 0.1 ug/ul in 1×LSD sample buffer, treated with 0, 5 or 100 mM DTT and separated by SDS PAGE. Proteins were silver stained or transferred to nitrocellulose and immunoblotted with primary antibodies for tropomyosin sarcomeric (CH1, Sigma-Aldrich Co., St. Louis, Mo., USA), actin (AC-40, Sigma-Aldrich Co., St. Louis, Mo., USA), myosin light chain 1 (MLM527, Abcam, Cambridge, Mass., USA) or myosin heavy chain (3-48, Abcam, Cambridge, Mass., USA). For some silver stained gel bands of interest in-gel digestion was done following the protocol outlined in Shevchenko et al.. Gel slices of interest were excised from the gels cut into 1 mm^3 pieces. Silver stained gel pieces were destained in 1:1(v/v) 30 mM Potassium ferricyanide and 100 mM Sodium thiosulfate and wash three times with ddH2O. Gel pieces were dehydrated in 100% acetonitrile and reswelled in 10 mM DTT and incubated at 55° C. for 1 hour. After the DTT solution was removed, a solution of 55 mM iodoacetimide was added and gel slices were incubated at room temperature protected from light. Gel slices were then washed 3 times with 50% (v/v) ACN, 25 mM (NH4)HCO3 and then fully dehydrated in 100% ACN and dried in a speed vac. Gel pieces were reswelled in a 12.5 ng/μL trypsin (Promega, Madison Wis. USA) solution containing 25 mM (NH4)HCO3 and incubated at 37° C. for >16 hours. Digested peptides were extracted by addition of 5% (v/v) formic acid and incubation for 15 min followed by addition of an equal volume of 100% ACN and 15 min incubation, this step was repeated and the extracts were combined. […]"}, "[1]": {"settings": "AS applied to isolated trebecula or skinned muscle preparations"}}, "data": [{"smiles": "CC(=O)OC1(N=O)CCCCC1", "note": "[NCA, 1-nitrosocyclohexylacetate]", "values": [{"measurement": "Hill", "setting": "intact trabeculae; NCA 20 μmol/L, intact muscles", "value": "4.92±0.84"}, {"measurement": "[Ca2+]i required for 50% of activation (Ca50)", "setting": "intact trabeculae; NCA 20 μmol/L, intact muscles", "value": "0.42±0.01"}, {"measurement": "maximal Ca2+-activated force (Fmax)", "setting": "intact trabeculae; NCA 20 μmol/L, intact muscles", "value": "123±18", "unit": "mN/mm^2"}, {"measurement": "actin higher molecular weight forms", "setting": "actin", "value": "approximately 80 kDa"}, {"measurement": "antibody epitope binding of monomeric actin", "setting": "actin; western blot", "value": "loss of antibody epitope binding"}]}, {"smiles": "[Na+].[Na+].[O-][N+]([O-])=NO", "note": "[AS, Angeli's Salt]", "values": [{"measurement": "Ca50", "setting": "intact trabeculae; [1]", "value": "without altering"}, {"measurement": "Hill coefficient", "setting": "intact trabeculae; [1]", "value": "without altering"}, {"measurement": "maximum force of contraction", "setting": "intact trabeculae; [1]", "value": "increase"}, {"measurement": "actin higher molecular weight forms", "setting": "actin", "value": "approximately 80 kDa"}]}]}
